Results on two molecules are retold here after patent publication US20180235936A1, “CANCER TREATMENT METHODS” (University of Notre Dame du Lac, priority 2017, published 2018).

“Also recorded” adds a separate entry of the source.

Assay [1] deals with AsPC1 cells and CAF1 cells tumors. Nature of the assay: Subcutaneous AsPC1 + CAF1 tumor growth in NOD/SCID mice. To be noted: intraperitoneally twice weekly for two weeks. It is filed as in vivo. How it is done: FIGS. 10A-B illustrate graphs of NOD/SCID mice that were subcutaneously implanted with one million AsPC1 cells and 200,000 CAF1 cells. Two weeks post implantation mice were treated intraperitoneally with DMSO+PBS, DMSO+gemcitabine (GEM), or PBS+GW4869 twice weekly for two weeks. (FIG. 10A) Tumor growth over the course of the ten-day post drug treatment. (FIG. 10B) Change in tumor volume from first day of drug treatment to 10 days post initial drug treatment. *p-value<0.05. NS (not significant).
Additionally, it should be appreciated that dosages can be determined as described herein. In one embodiment, the dosage of pharmaceutical composition depends on the drug itself, its efficacy, and its toxicity. As an exemplary embodiment, 2-2.5 gg GW4869 per gram mouse body weight can be intraperitoneally injected into mice twice weekly for two weeks to achieve therapeutic results.

The test system of assay [2] is pancreatic cancer epithelial cells. The experiment in a line: Scratch migration assay of pancreatic cancer epithelial cells. Further details: dose or concentration left out as unconfirmed. It is filed as cell-based, human. To be noted: GW4869, serum-free media, three days; vs DMSO. An excerpt:
FIG. 20 illustrates a graph of the results from pancreatic cancer epithelial cells being grown to full confluency and placed in serum-free media to prevent cell proliferation. A scratch was made down to center of the plate to create a cell free zone for migration. Cells were then given DMSO as a control or 2011M GW4869. Images were taken each day for three days and distance of cell migration was quantified using ImageJ.

For assay [3] the test system is unchanged. Nature of the assay: Direct GW4869 treatment of pancreatic cancer epithelial cells followed by gemcitabine; percent live cells (trypan blue). It is filed as cell-based, human. Details: dose or concentration left out as unconfirmed. To be noted: GW4869 for one day then gemcitabine for three days; vs DMSO. An excerpt:
FIG. 19 illustrates a graph of the results from pancreatic cancer epithelial cells being treated with DMSO as a control or 2011M GW4869 for one day then treated with gemcitabine for three days. Live and dead cells were quantified using an automated cell counter and trypan blue staining. Percent live cells was quantified.

A further assay deals with microRNA-92a. The experiment in a line: microRNA-92a expression by RT-PCR in AsPC1 cells co-cultured with GW4869-treated CAFs. To be noted: PCAFs treated with GW4869 vs DMSO. It is filed as cell-based, human. The text has this:
FIG. 17A illustrates a graph of the results from pancreatic cancer epithelial cells (AsPC1) grown in PCAF-conditioned media; the cells expressed higher levels of microRNA-92a compared to control media, as established via RTPCR.

Assay [4] concerns pancreatic cancer-associated fibroblasts (CAF1). Nature of the assay: Exosome release from CAF1s treated with GW4869, exosomes dyed with CFSE and quantified. The note with it: CAFs; FIG. 8B / FIG. 12. It is filed as cell-based, human. Here is the method:
(§1) (FIG. 8A) AsPC1 cells were grown for 5 days in AsPC1-conditioned media (AsPC1/AsPC1), CAF1-conditioned media (CAF1/AsPC1) or CAF1-conditioned media depleted of exosomes (CAF1-ED/AsPC1) and then treated with 111M GEM for 3 days and live cells were counted. (FIG. 8B) CAF1s were treated with 20 gm GW4869 or DMSO along with 111M gemcitabine or PBS for 3 days. Exosomes in media were collected, dyed with CFSE, and quantified. (FIG. 8C) AsPC1 cells were co-cultured with AsPC1 cells, CAFs, GW4869-treated CAF1s, DMEM alone (Blank/AsPC1), or GW4869 in DMEM (Blank+GW4869) for 6 days then treated during co-culture with 111M gemcitabine for 3 days. Live co-cultured AsPC1 cells at the bottom of the plate were counted. (FIG. 8D) Snai1 expression was measured via RT-PCR in AsPC1 cells co-cultured with untreated CAFs (CAF-NT/AsPC1) or GW4869-treated CAFs (CAF-GW/AsPC1). (FIG. 8E) L3.6 cells were cultured in CAF1-conditioned (CAF1/L3.6) media or CAF1-conditioned media depleted of exosomes (CAF1-ED/L3.6). miR146a expression was measured via RT-PCR. **p-value<0.01.

The test system of another assay is Snai1 mRNA. Nature of the assay: Snai1 expression by RT-PCR in AsPC1 cells co-cultured with GW4869-treated CAFs. It is filed as cell-based, human. The note with it: exosome secretion from PCAFs inhibited by GW4869. Here is the method: as §1
Assay [5] relates to pancreatic epithelial cancer cells (AsPC1) co-cultured with CAFs. Nature of the assay: Co-culture of pancreatic epithelial cancer cells with GW4869-treated CAFs, then gemcitabine; live cell count. It is filed as cell-based, human. The note with it: GW4869-treated CAFs (20 μM), gemcitabine for three days during co-culture. Here is the method: as §1
The bottom co-cultured epithelial cells were then treated with gemcitabine for three days during co-culture. Live co-cultured epithelial cells at the bottom of the plate were quantified using an automated cell counter. *p-value<0.05; **p-value <0.01. NS (not significant).

The test system of the next assay is Snai1 and miR-146a. Nature of the assay: RT-PCR of Snai1 and miR-146a in CAF1s and CAF1 exosomes during gemcitabine treatment. It is filed as cell-based, human. Here is the method:
(FIG. 11A) RT-PCR. miR-146a and Snai1 levels were altered in CAF1s during 1 μM GEM treatment (GT) (3 days) compared to untreated control (NT). (FIG. 11B) RT-PCR. CAF1s were treated with Snai1-siRNA, and Snai1 and miR-146a expression was measured compared to negative siRNA control treated CAFs. (FIG. 11C) Exosomes from untreated and 1 μM GEM-treated CAF1s were isolated and Snai1 mRNA and miR-146a within CAF1 exosomes was quantified via RT-PCR using relative Ct values. (FIG. 11D-E) L3.6 cells were treated with GT-CAF1 exosomes for 6 days (GTCAF1/L3.6) or left untreated (L3.6 control). AsPC1 cells were treated with GT-CAF1 exosomes for 6 days (GT-CAF1/AsPC1) or left untreated (AsPC1 control). Snai1 (FIG. 11D) and miR-146a (FIG. 11E) levels were quantified in recipient cells via RT-PCR. *p-value<0.05; **p-value<0.01.

The subject of assay [6] is pancreatic cancer-associated fibroblasts (CAF1). The experiment in a line: Exosome secretion from cells during chemotherapy treatment, exosomes isolated from conditioned media and quantified. It is filed as cell-based, human. The note with it: most prominently from PCAFs; 4 days treatment; vs untreated. Here is the method: (FIG. 4A) CAF1s were left untreated (NT) or treated with 111M gem (GT) for 4 days. Exosomes were isolated from conditioned cell media, and protein lysates were used to perform a western blot for CD81 and beta-actin (left). Isolated exosomes were examined for size and structure via transmission electron microscopy (right). (FIG. 4B) CAF1 cells transduced with a GFP-CD63 lentivirus (GFP-CD63-CAF1s) were treated with luM gemcitabine (GT) or left untreated (NT) and fluorescence was analyzed via microscopy. (FIG. 4C) Total corrected cell fluorescence of GFP-CD63-CAF1 cells was quantified using ImageJ. (FIG. 4D) Cells were treated with 11.1M gemcitabine (Fibroblasts and PANC1), 10 nM gemcitabine (L3.6), or left untreated for 4 days (NT), and exosomes were collected and quantified. Scale bar, 200 Em. *pvalue<0.05; **p-value<0.01.
FIG. 5 illustrates a graph of fold change in exosome secretion per cell. CAF1 cells were plated at 500,000 cells/flask and left untreated (control), treated with 111M gemcitabine, or 10 nM Nab-Paclitaxel for 4 days. Live cells were counted. Exosomes were isolated from conditioned-media and quantified. *p-value<0.05;**p-value<0.01.

Assay [7] has as its system PCAF extracellular vesicle microRNAs. Nature of the assay: MicroRNA-Seq of extracellular vesicles from gemcitabine-treated versus PBS-treated PCAFs. It is filed as cell-based, human. To be noted: normalized to total RNA. An excerpt: While Snai1 and miR-146a may play an important role in promoting chemoresistance of PECCs, other potential mechanisms exist in which PCAF exosomes may increase chemoresistance. For example, by treating PCAFs with PBS as a control or gemcitabine, collecting their secreted extracellular vesicles, lysing them, collecting the microRNA within, and quantifying the microRNAs, the role of microRNAs is made clearer. […] [table]

Assay [8] has as its system pancreatic ductal adenocarcinoma (PDAC). To be noted: adjuvant gemcitabine, observed cohort; cited from earlier work.
The subject of another assay is PTEN. The experiment in a line: PTEN expression by RT-PCR in tumors extracted from treated NOD/SCID mice. The note with it: intraperitoneally twice weekly for two weeks; compared to control. It is filed as in vivo. Here is the method: FIG. 16 illustrates a graph of the results from NOD/SCID mice being subcutaneously implanted with one million AsPC1 cells and 200,000 CAF1 cells. Two weeks post implantation mice were treated intraperitoneally with DMSO+PBS, DMSO+gemcitabine, PBS+GW4869, or gemcitabine+GW4869 twice weekly for two weeks. Tumors were extracted for RNA and PTEN expression within tumor samples was quantified via RT-PCR.

[9] abbreviates: 1 μM GEM treatment (3 days) vs untreated.

Turning to `O=C(/C=C/c1ccc(/C=C/C(=O)Nc2ccc(C3=NCCN3)cc2)cc1)Nc1ccc(C2=NCCN2)cc1` [GW4869], the tumor growth result in assay [1] is given as “reduced tumor growth”. Moreover, the “cell migration of PECCs” value in assay [2] is given as “reduced cell migration”. For the same molecule, in assay [3], the “chemoresistance of PECCs treated directly” value is on record as “reduced chemoresistance”. Besides, the “expression of miR-92a within co-cultured PECCs” value in the assay with microRNA-92a is “reduced expression; also recorded: decreased”. The exosome release entry in assay [4] was “suppresses exosome release”. Also, the “cellular level of Snai1 mRNA within co-cultured PECCs” value with Snai1 mRNA is recorded as “decreased”. The “chemoresistance of co-cultured PECCs” value in assay [5] is on record as “reduced the chemoresistance”.

In the case of `Nc1ccn([C@@H]2O[C@H](CO)[C@@H](O)C2(F)F)c(=O)n1` [gemcitabine], in the assay with Snai1 and miR-146a (setting [9]), the “Snai1 level in CAFs” value is recorded as “upregulation” and the “miR-146a level in CAFs” value is recorded as “upregulation”. Besides, in the assay with Snai1 and miR-146a (1 μM GEM-treated vs untreated), the “level of Snai1 mRNA in exosomes secreted from PCAFs” value is on record as “higher” and the “level of miR-146a in exosomes secreted from PCAFs” value is “higher”. In addition, the “secretion of exosomes from cells” value in assay [6] is “increases secretion of exosomes”. For the same molecule, in assay [7], the “Fold Change (GEM vs. NT) of hsa-m1R-221-3p in extracellular vesicles” value came to 4.325, the “Fold Change (GEM vs. NT) of hsa-miR-21-5p in extracellular vesicles” value turned out to be 2.531, the “Fold Change (GEM vs. NT) of hsa-miR-92a-3p in extracellular vesicles” value is recorded as 4.66 and the “Fold Change (GEM vs. NT) of hsa-miR-181a-5p in extracellular vesicles” value was 3.509. In addition, the “Fold Change (GEM vs. NT) of hsa-miR-222-3p in extracellular vesicles” value in assay [7] worked out at 2.649. Further, the “patients eventually showing tumor recurrence” value in assay [8] is 74%. In addition, the “PTEN expression within the tumors” value in the assay with PTEN is “decreased”.
